# Paper PMC6409085, “Three odorant-binding proteins are involved in the behavioral response of Sogatella furcifera to rice plant volatiles” (PeerJ, 2019)
# Several values for one entry are separate records, joined by “and”; a condition that tells them apart may be missing. Equal entries are not always repeated.
# Columns and labels:
# SfurOBP1 = SfurOBP1 (Sogatella furcifera, UniProt V5T8N5); experiment: biochemical; assay type: binding; settings: for Fluorescence competitive binding assay, fluorescence intensity: OBP1, three replicate columns
# Chain of SfurOBP1 (V5T8N5 entry or part of it): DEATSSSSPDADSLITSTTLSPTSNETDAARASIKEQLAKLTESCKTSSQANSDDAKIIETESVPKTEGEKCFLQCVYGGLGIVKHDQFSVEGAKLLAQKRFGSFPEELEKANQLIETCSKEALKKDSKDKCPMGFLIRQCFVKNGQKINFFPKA
# Method in brief: (§1)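 Fluorescence competitive binding used 2.0 µM SfurOBP and 2.0 µM 1-NPN reporter in 50 mM Tris-HCl, pH 7.4, with odorants at 2-20 µM. Fluorescence was read 2 min after adding the odorant (excitation 337 nm, emission 390-490 nm), in triplicate. Ki was calculated from IC50 as IC50/(1 + [1-NPN]/K1-NPN).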
# SfurOBP3 = SfurOBP3 (Sogatella furcifera, UniProt V5T818); experiment: biochemical; assay type: binding; settings: for Fluorescence competitive binding assay, fluorescence intensity: OBP3, three replicate columns;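 as to Fluorescence competitive binding assay, fluorescence intensity: competitor odorant at 2 to 20 µM with protein and 1-NPN both 2.0 µM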
# Chain of SfurOBP3 (V5T818 entry or part of it): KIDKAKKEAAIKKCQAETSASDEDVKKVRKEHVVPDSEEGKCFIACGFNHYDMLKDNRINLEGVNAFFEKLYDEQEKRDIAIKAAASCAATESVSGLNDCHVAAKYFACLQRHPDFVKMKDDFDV
# Method in brief: as §1
# SfurOBP11 = SfurOBP11 (Sogatella furcifera, UniProt V5T6E3); experiment: biochemical; assay type: binding
# Chain of SfurOBP11 (V5T6E3 entry or part of it): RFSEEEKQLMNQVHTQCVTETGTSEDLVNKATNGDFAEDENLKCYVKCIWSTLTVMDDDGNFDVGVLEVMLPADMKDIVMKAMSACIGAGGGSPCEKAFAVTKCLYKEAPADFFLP
# Method in brief: as §1
# SfurOBP2 = SfurOBP2 (Sogatella furcifera, UniProt V5T759); experiment: biochemical; assay type: binding
# Chain of SfurOBP2 (V5T759 entry or part of it): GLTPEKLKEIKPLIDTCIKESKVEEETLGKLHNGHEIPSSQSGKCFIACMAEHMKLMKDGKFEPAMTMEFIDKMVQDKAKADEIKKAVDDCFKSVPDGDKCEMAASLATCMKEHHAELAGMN
# Method in brief: as §1
# S. furcifera adults = experiment: Y-tube olfactometer behavioral trials; assay type: in vivo, Sogatella furcifera; settings: odorant 50 µL/L vs hexane; adults
# Method in brief: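 Single S. furcifera adults (2 days post-emergence, starved 0.5 h) chose between odorant (100 µL of 50 µL/L on filter paper) and hexane control in a glass Y-tube, charcoal-filtered humidified air 300 mL/min per arm, 25 ± 1 °C, 50% RH. Choice scored if insect passed half an arm and stayed >1 min within 10 min; 45 insects per compound, chi-squared test.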
# 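For Fluorescence competitive binding assay, fluorescence intensity in this document: competitor odorant at 2 to 20 µM with protein and 1-NPN both 2.0 µM.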
smiles,measurement,setting,value
OC1CCCCC1 [cyclohexanol],IC50,SfurOBP1,> 20 µM
same,"Fluorescence competitive binding assay, fluorescence intensity",SfurOBP1; ligand concentration 2 (μM),5844 and 5673 and 6371
same,"Fluorescence competitive binding assay, fluorescence intensity",SfurOBP1; ligand concentration 4 (μM),9311 and 8690 and 9932
same,"Fluorescence competitive binding assay, fluorescence intensity",SfurOBP1; ligand concentration 6 (μM),6443 and 7058 and 7039
same,"Fluorescence competitive binding assay, fluorescence intensity",SfurOBP1; ligand concentration 8 (μM),6837 and 7313 and 7729
same,"Fluorescence competitive binding assay, fluorescence intensity",SfurOBP1; ligand concentration 10 (μM),8238 and 7697 and 7236
same,"Fluorescence competitive binding assay, fluorescence intensity",SfurOBP1; ligand concentration 12 (μM),6489 and 6472 and 7355
same,"Fluorescence competitive binding assay, fluorescence intensity",SfurOBP1; ligand concentration 14 (μM),7069 and 6354 and 7092
same,"Fluorescence competitive binding assay, fluorescence intensity",SfurOBP1; ligand concentration 16 (μM),6030 and 6324 and 7260
same,"Fluorescence competitive binding assay, fluorescence intensity",SfurOBP1; ligand concentration 18 (μM),9356 and 7906 and 7474
same,"Fluorescence competitive binding assay, fluorescence intensity",SfurOBP1; ligand concentration 20 (μM),8046 and 8689 and 8368
same,IC50,SfurOBP3,> 20 µM
same,"Fluorescence competitive binding assay, fluorescence intensity",SfurOBP3; ligand concentration 2,73467 and 78493 and 77746
same,"Fluorescence competitive binding assay, fluorescence intensity",SfurOBP3; ligand concentration 4,78452 and 70026 and 82856
same,"Fluorescence competitive binding assay, fluorescence intensity",SfurOBP3; ligand concentration 6,79407 and 77940 and 78195
same,"Fluorescence competitive binding assay, fluorescence intensity",SfurOBP3; ligand concentration 8,71546 and 83168 and 84706
same,"Fluorescence competitive binding assay, fluorescence intensity",SfurOBP3; ligand concentration 10,73852 and 75338 and 78193
same,"Fluorescence competitive binding assay, fluorescence intensity",SfurOBP3; ligand concentration 12,65457 and 72548 and 71432
same,"Fluorescence competitive binding assay, fluorescence intensity",SfurOBP3; ligand concentration 14,60072 and 60001 and 71583
same,"Fluorescence competitive binding assay, fluorescence intensity",SfurOBP3; ligand concentration 16,61622 and 57596 and 60550
same,"Fluorescence competitive binding assay, fluorescence intensity",SfurOBP3; ligand concentration 18,75606 and 79879 and 73633
same,"Fluorescence competitive binding assay, fluorescence intensity",SfurOBP3; ligand concentration 20,63397 and 61447 and 55682
same,IC50,SfurOBP11,> 20 µM
same,"Fluorescence intensity, fluorescence competitive binding assay, OBP11","SfurOBP11; ligand concentration 2, replicate 1",24375
same,"Fluorescence intensity, fluorescence competitive binding assay, OBP11","SfurOBP11; ligand concentration 2, replicate 2",24650
same,"Fluorescence intensity, fluorescence competitive binding assay, OBP11","SfurOBP11; ligand concentration 2, replicate 3",24939
same,"Fluorescence intensity, fluorescence competitive binding assay, OBP11","SfurOBP11; ligand concentration 4, replicate 1",24494
same,"Fluorescence intensity, fluorescence competitive binding assay, OBP11","SfurOBP11; ligand concentration 4, replicate 2",24823
same,"Fluorescence intensity, fluorescence competitive binding assay, OBP11","SfurOBP11; ligand concentration 4, replicate 3",24654
same,"Fluorescence intensity, fluorescence competitive binding assay, OBP11","SfurOBP11; ligand concentration 6, replicate 1",24316
same,"Fluorescence intensity, fluorescence competitive binding assay, OBP11","SfurOBP11; ligand concentration 6, replicate 2",24699
same,"Fluorescence intensity, fluorescence competitive binding assay, OBP11","SfurOBP11; ligand concentration 6, replicate 3",24500
same,"Fluorescence intensity, fluorescence competitive binding assay, OBP11","SfurOBP11; ligand concentration 8, replicate 1",24760
same,"Fluorescence intensity, fluorescence competitive binding assay, OBP11","SfurOBP11; ligand concentration 8, replicate 2",24220
same,"Fluorescence intensity, fluorescence competitive binding assay, OBP11","SfurOBP11; ligand concentration 8, replicate 3",24499
same,"Fluorescence intensity, fluorescence competitive binding assay, OBP11","SfurOBP11; ligand concentration 10, replicate 1",22885
same,"Fluorescence intensity, fluorescence competitive binding assay, OBP11","SfurOBP11; ligand concentration 10, replicate 2",23988
same,"Fluorescence intensity, fluorescence competitive binding assay, OBP11","SfurOBP11; ligand concentration 10, replicate 3",24498
same,"Fluorescence intensity, fluorescence competitive binding assay, OBP11","SfurOBP11; ligand concentration 12, replicate 1",23691
same,"Fluorescence intensity, fluorescence competitive binding assay, OBP11","SfurOBP11; ligand concentration 12, replicate 2",23225
same,"Fluorescence intensity, fluorescence competitive binding assay, OBP11","SfurOBP11; ligand concentration 12, replicate 3",24428
same,"Fluorescence intensity, fluorescence competitive binding assay, OBP11","SfurOBP11; ligand concentration 14, replicate 1",22556
same,"Fluorescence intensity, fluorescence competitive binding assay, OBP11","SfurOBP11; ligand concentration 14, replicate 2",23123
same,"Fluorescence intensity, fluorescence competitive binding assay, OBP11","SfurOBP11; ligand concentration 14, replicate 3",22199
same,"Fluorescence intensity, fluorescence competitive binding assay, OBP11","SfurOBP11; ligand concentration 16, replicate 1",21391
same,"Fluorescence intensity, fluorescence competitive binding assay, OBP11","SfurOBP11; ligand concentration 16, replicate 2",22093
same,"Fluorescence intensity, fluorescence competitive binding assay, OBP11","SfurOBP11; ligand concentration 16, replicate 3",21606
same,"Fluorescence intensity, fluorescence competitive binding assay, OBP11","SfurOBP11; ligand concentration 18, replicate 1",23329
same,"Fluorescence intensity, fluorescence competitive binding assay, OBP11","SfurOBP11; ligand concentration 18, replicate 2",23356
same,"Fluorescence intensity, fluorescence competitive binding assay, OBP11","SfurOBP11; ligand concentration 18, replicate 3",23748
same,"Fluorescence intensity, fluorescence competitive binding assay, OBP11","SfurOBP11; ligand concentration 20, replicate 1",23863
same,"Fluorescence intensity, fluorescence competitive binding assay, OBP11","SfurOBP11; ligand concentration 20, replicate 2",23927
same,"Fluorescence intensity, fluorescence competitive binding assay, OBP11","SfurOBP11; ligand concentration 20, replicate 3",23769
same,IC50,SfurOBP2,> 20 µM
same,"Fluorescence competitive binding assay, OBP2 (raw fluorescence reading)","SfurOBP2; ligand concentration 2 (unit not given), replicate column 1 of 3",20258
same,"Fluorescence competitive binding assay, OBP2 (raw fluorescence reading)","SfurOBP2; ligand concentration 2 (unit not given), replicate column 2 of 3",18511
same,"Fluorescence competitive binding assay, OBP2 (raw fluorescence reading)","SfurOBP2; ligand concentration 2 (unit not given), replicate column 3 of 3",18768
same,"Fluorescence competitive binding assay, OBP2 (raw fluorescence reading)","SfurOBP2; ligand concentration 4 (unit not given), replicate column 1 of 3",17006
same,"Fluorescence competitive binding assay, OBP2 (raw fluorescence reading)","SfurOBP2; ligand concentration 4 (unit not given), replicate column 2 of 3",17312
same,"Fluorescence competitive binding assay, OBP2 (raw fluorescence reading)","SfurOBP2; ligand concentration 4 (unit not given), replicate column 3 of 3",19296
same,"Fluorescence competitive binding assay, OBP2 (raw fluorescence reading)","SfurOBP2; ligand concentration 6 (unit not given), replicate column 1 of 3",17760
same,"Fluorescence competitive binding assay, OBP2 (raw fluorescence reading)","SfurOBP2; ligand concentration 6 (unit not given), replicate column 2 of 3",19185
same,"Fluorescence competitive binding assay, OBP2 (raw fluorescence reading)","SfurOBP2; ligand concentration 6 (unit not given), replicate column 3 of 3",18943
same,"Fluorescence competitive binding assay, OBP2 (raw fluorescence reading)","SfurOBP2; ligand concentration 8 (unit not given), replicate column 1 of 3",16983
same,"Fluorescence competitive binding assay, OBP2 (raw fluorescence reading)","SfurOBP2; ligand concentration 8 (unit not given), replicate column 2 of 3",16921
same,"Fluorescence competitive binding assay, OBP2 (raw fluorescence reading)","SfurOBP2; ligand concentration 8 (unit not given), replicate column 3 of 3",18381
same,"Fluorescence competitive binding assay, OBP2 (raw fluorescence reading)","SfurOBP2; ligand concentration 10 (unit not given), replicate column 1 of 3",16551
same,"Fluorescence competitive binding assay, OBP2 (raw fluorescence reading)","SfurOBP2; ligand concentration 10 (unit not given), replicate column 2 of 3",16106
same,"Fluorescence competitive binding assay, OBP2 (raw fluorescence reading)","SfurOBP2; ligand concentration 10 (unit not given), replicate column 3 of 3",17116
same,"Fluorescence competitive binding assay, OBP2 (raw fluorescence reading)","SfurOBP2; ligand concentration 12 (unit not given), replicate column 1 of 3",12653
same,"Fluorescence competitive binding assay, OBP2 (raw fluorescence reading)","SfurOBP2; ligand concentration 12 (unit not given), replicate column 2 of 3",16542
same,"Fluorescence competitive binding assay, OBP2 (raw fluorescence reading)","SfurOBP2; ligand concentration 12 (unit not given), replicate column 3 of 3",15003
same,"Fluorescence competitive binding assay, OBP2 (raw fluorescence reading)","SfurOBP2; ligand concentration 14 (unit not given), replicate column 1 of 3",14815
same,"Fluorescence competitive binding assay, OBP2 (raw fluorescence reading)","SfurOBP2; ligand concentration 14 (unit not given), replicate column 2 of 3",15068
same,"Fluorescence competitive binding assay, OBP2 (raw fluorescence reading)","SfurOBP2; ligand concentration 14 (unit not given), replicate column 3 of 3",14859
same,"Fluorescence competitive binding assay, OBP2 (raw fluorescence reading)","SfurOBP2; ligand concentration 16 (unit not given), replicate column 1 of 3",15306
same,"Fluorescence competitive binding assay, OBP2 (raw fluorescence reading)","SfurOBP2; ligand concentration 16 (unit not given), replicate column 2 of 3",13071
same,"Fluorescence competitive binding assay, OBP2 (raw fluorescence reading)","SfurOBP2; ligand concentration 16 (unit not given), replicate column 3 of 3",13046
same,"Fluorescence competitive binding assay, OBP2 (raw fluorescence reading)","SfurOBP2; ligand concentration 18 (unit not given), replicate column 1 of 3",15697
same,"Fluorescence competitive binding assay, OBP2 (raw fluorescence reading)","SfurOBP2; ligand concentration 18 (unit not given), replicate column 2 of 3",16234
same,"Fluorescence competitive binding assay, OBP2 (raw fluorescence reading)","SfurOBP2; ligand concentration 18 (unit not given), replicate column 3 of 3",16085
same,"Fluorescence competitive binding assay, OBP2 (raw fluorescence reading)","SfurOBP2; ligand concentration 20 (unit not given), replicate column 1 of 3",15959
same,"Fluorescence competitive binding assay, OBP2 (raw fluorescence reading)","SfurOBP2; ligand concentration 20 (unit not given), replicate column 2 of 3",14904
same,"Fluorescence competitive binding assay, OBP2 (raw fluorescence reading)","SfurOBP2; ligand concentration 20 (unit not given), replicate column 3 of 3",13122
same,number of insects choosing hexane arm,S. furcifera adults,12
same,number of insects choosing volatilies arm,S. furcifera adults,7
same,number of insects failed (no choice),S. furcifera adults,21
